In article PMC4775916 (Antimicrobial Agents and Chemotherapy, 2016):
“And” between values parts separate entries of the source, which are not always exact repeats. Equal values may be shown once. Read-outs that look alike come from different tables or passages of the source.

What was measured:
[1] = target: T1, VIM-1 (Pseudomonas aeruginosa, UniProt A0A0F7KYQ8); assay: Steady-state kinetics of β-lactam substrate hydrolysis; assay type: biochemical
T1 construct: The N- and C- terminal residues of the mature enzymes are labelled 26; made in house
Method: (§1) The hydrolysis of a representative panel of β-lactam substrates was monitored at their respective absorbance wavelengths. The wavelengths and extinction coefficients used were previously described ([34]). The assays were carried out using 50 mM HEPES buffer (pH 7.2) supplemented with 1 μg/ml bovine serum albumin (BSA), 1 μM ZnSO4, and 0.01% Triton X-100. In the case of VIM-1, C-terminally His6-tagged VIM-1 was used for kinetic analyses. Note that no differences were observed between the activities of untagged VIM-1 and C-terminally His6-tagged VIM-1 for the selected antibiotics (data not shown). The initial rates were obtained from the changes in absorbance at various substrate concentrations. Steady-state kinetic parameters (Km and kcat) were determined by fitting the initial velocity data to the Michaelis-Menten equation using GraphPad Prism 5.01 software (see Table S4 in the supplemental material).

[2] = target: T2, VIM-5 (Pseudomonas aeruginosa, UniProt A0A0F7KYQ8, A128K/E202A/H201L/K257T/S205R); assay: as above; assay type: biochemical; conditions: 50 mM HEPES pH 7.2, apparent for ampicillin and ceftazidime; for Km: read-out: Mean Km ± SD VIM-5
T2 construct: His6 with HRV3C cleavage site (pET-28a) (N, cleaved yes); made in house; host or cells: E. coli BL21(DE3)
Method: as §1

[3] = target: T3, VIM-38 (Pseudomonas aeruginosa, UniProt A0A0F7KYQ8, A128K/A265V/E202A/H201L/K257T/S205R); assay: as above; assay type: biochemical; conditions: 50 mM HEPES pH 7.2, apparent for ampicillin and ceftazidime; for Km: read-out: Mean Km ± SD VIM-38
T3 construct: The N- and C- terminal residues of the mature enzymes are labelled 26; His6 with HRV3C cleavage site (pET-28a) (N, cleaved yes); made in house; host or cells: E. coli BL21(DE3)
Method: as §1

[4] = target: T1, VIM-1; conditions: previous studies ref Franceschini et al. (4), cited from earlier work; for Km: read-out: Km VIM-1 (previous study)
[5] = test system: VIM-5; set-up: method as in Garcar et al. (6); conditions: previous studies ref Garcar et al. (6), cited from earlier work
[6] = target: T4, VIM-2 (Escherichia coli, UniProt Q5U7L7); assay type: biochemical
T4 construct: His6 (N, cleaved yes); made in house
Method: as §1

[7] = test system: O=C(Cc1cccs1)N[C@@H]1C(=O)N2C(C(=O)O)=C(/C=C/c3ccc([N+](=O)[O-])cc3[N+](=O)[O-])CS[C@H]12; assay: Nitrocefin hydrolysis kinetics before thermal denaturation and after refolding; assay type: biochemical; conditions: other: nitrocefin hydrolysis, after refolding
Method: Circular dichroism (CD) analyses were carried out using a Chirascan CD spectrophotometer (Applied Photophysics) equipped with a Peltier temperature-controlled cell holder. CD measurements were collected in the range of 185 to 260 nm; spectra were baseline corrected and smoothed using a Savitzky-Golay filter. Data were normalized at 207 nm to account for differences in protein concentrations ([38]), and the estimation of secondary structure content was performed with Dichro Web ([39]) using the CONTIN Analysis Programme (reference set 6) ([40]). Melting temperatures (Tm) of the recombinant enzymes were determined by monitoring temperature-induced changes in the CD signal at 222 nm. The temperature was increased by 1°C per min, and the CD signal was recorded at temperatures ranging from 25°C to 92°C. The samples were then cooled from 92°C to 25°C at the same rate, and a CD spectrum of the refolded proteins was determined. The activity of the enzymes was recorded before thermal denaturation and after refolding by monitoring nitrocefin hydrolysis. The thermal denaturation data were fitted to a Boltzmann sigmoidal curve by using GraphPad Prism 5.0 software. CD spectra and thermal denaturation curves are shown in Fig. 2 and in Tables S2 and S3 in the supplemental material.

[8] = test system: O=C(Cc1cccs1)N[C@@H]1C(=O)N2C(C(=O)O)=C(/C=C/c3ccc([N+](=O)[O-])cc3[N+](=O)[O-])CS[C@H]12; assay: purified protein, by the assay type; assay type: biochemical; conditions: other: 50 mM HEPES pH 7.2, apparent for ampicillin and ceftazidime
Method: as §1

[9] = test system: CC(C)(O/N=C(\C(=O)N[C@@H]1C(=O)N2C(C(=O)[O-])=C(C[n+]3ccccc3)CS[C@H]12)c1csc(N)n1)C(=O)O; assay: purified protein, by the assay type; assay type: biochemical; conditions: other: 50 mM HEPES pH 7.2, apparent for ampicillin and ceftazidime
Method: as §1

[10] = test system: CC(=O)OCC1=C(C(=O)O)N2C(=O)[C@@H](NC(=O)Cc3cccs3)[C@H]2SC1; assay: purified protein, by the assay type; assay type: biochemical; conditions: other: 50 mM HEPES pH 7.2, apparent for ampicillin and ceftazidime
Method: as §1

[11] = test system: C[C@@H](O)[C@H]1C(=O)N2C(C(=O)O)=C(S[C@@H]3CN[C@H](C(=O)N(C)C)C3)[C@H](C)[C@H]12; assay: purified protein, by the assay type; assay type: biochemical; conditions: other: 50 mM HEPES pH 7.2, apparent for ampicillin and ceftazidime
Method: as §1

[12] = test system: CO[C@@]1(NC(=O)Cc2cccs2)C(=O)N2C(C(=O)O)=C(COC(N)=O)CS[C@@H]21; assay: purified protein, by the assay type; assay type: biochemical; conditions: other: 50 mM HEPES pH 7.2, apparent for ampicillin and ceftazidime
Method: as §1

[13] = test system: C[C@@H](O)[C@H]1C(=O)N2C(C(=O)O)=C(SCCN=CN)C[C@H]12; assay: purified protein, by the assay type; assay type: biochemical; conditions: other: 50 mM HEPES pH 7.2, apparent for ampicillin and ceftazidime
Method: as §1

[14] = test system: VIM-2; set-up: method as in Poirel et al. (5); conditions: previous studies ref Poirel et al. (5), cited from earlier work
[15] = C-terminally His6-tagged VIM-1; 50 mM HEPES pH 7.2; apparent for ampicillin and ceftazidime
[16] = 50 mM HEPES pH 7.2; apparent for ampicillin and ceftazidime

CC1(C)S[C@@H]2[C@H](NC(=O)[C@H](N)c3ccccc3)C(=O)N2[C@H]1C(=O)O [Ampicillin]
kcat VIM-1 [1, 15]: 122 s⁻¹ and 120 s⁻¹
Km ([1]; C-terminally His6-tagged VIM-1; 50 mM HEPES pH 7.2; apparent for ampicillin and ceftazidime; read-out: Mean Km ± SD VIM-1): > 1000 µM
Km ([1]; read-out: Mean Km ± SD VIM-1; C-terminally His6-tagged VIM-1; 50 mM HEPES pH 7.2; apparent for ampicillin and ceftazidime): > 300 µM
kcat VIM-5 [2]: 230 s⁻¹
Km [2]: > 1000 µM
Km ([2]; listed as ampicillin): > 300 µM
kcat VIM-38 [3]: 170 s⁻¹
Km [3]: 380 ± 80 µM
Km ([3]; listed as ampicillin): > 300 µM
kcat VIM-1 (previous study) [4]: 37 s⁻¹
Km [4]: 917 µM
kcat VIM-5 (previous study) [5]: 14 s⁻¹
kcat VIM-2 [6, 16]: 180 s⁻¹
Km ([6]; 50 mM HEPES pH 7.2; apparent for ampicillin and ceftazidime; read-out: Mean Km ± SD VIM-2): > 500 µM
Km ([6]; read-out: Mean Km ± SD VIM-2; 50 mM HEPES pH 7.2; apparent for ampicillin and ceftazidime): > 300 µM

VIM-2 (Escherichia coli)
Km [7]: 15 ± 1 µM
kcat [7]: 130 s⁻¹
kcat/Km [7]: 8.7e+06 M⁻¹ s⁻¹
Km [8]: 50 ± 5 µM
kcat [8]: 510 s⁻¹
kcat/Km [8]: 1.02e+07 M⁻¹ s⁻¹
Km [9]: 120 ± 20 µM
kcat [9]: 2 s⁻¹
kcat/Km [9]: 20000 M⁻¹ s⁻¹
Km [10]: 50 ± 6 µM
kcat [10]: 210 s⁻¹
kcat/Km [10]: 4.2e+06 M⁻¹ s⁻¹
Km [11]: 20 ± 4 µM
kcat [11]: 7 s⁻¹
kcat/Km [11]: 300000 M⁻¹ s⁻¹
Km [12]: 40 ± 10 µM
kcat [12]: 50 s⁻¹
kcat/Km [12]: 1.3e+06 M⁻¹ s⁻¹
Km [13]: 33 ± 4 µM and 30 ± 4 µM
kcat [13]: 95 s⁻¹ and 100 s⁻¹
kcat/Km [13]: 3.3e+06 M⁻¹ s⁻¹

C[C@@H](O)[C@H]1C(=O)N2C(C(=O)O)=C(S[C@@H]3CN[C@H](C(=O)N(C)C)C3)[C@H](C)[C@H]12 [Meropenem]
kcat VIM-1 [1, 15]: 50 s⁻¹
Km for VIM-1 fold higher than that for VIM-2 ([1]; VIM-1 versus VIM-2): > 6 fold
kcat for VIM-1 fold higher than those for VIM-2 ([1]; VIM-1 versus VIM-2): > 7 fold
kcat VIM-5 [2]: 16 s⁻¹ and 20 s⁻¹
Km [2]: 70 ± 10 µM
kcat VIM-38 [3]: 10 s⁻¹
Km [3]: 30 ± 4 µM
kcat VIM-1 (previous study) [4]: 13 s⁻¹
Km [4]: 48 µM
kcat VIM-5 (previous study) [5]: 2.4 s⁻¹
Km ([5]; read-out: Km VIM-5 (previous study)): 49 µM
kcat VIM-2 [6, 16]: 7 s⁻¹
kcat VIM-2 (previous study) [14]: 1.4 s⁻¹
Km ([14]; read-out: Km VIM-2 (previous study)): 5 µM
